Calls of active or inactive are those of the source. The calls are words filed in the database; no cut-off is given here.

Data set [1] deals with HUVEC. The data set can be described thus: Antiangiogenic activity in HUVEC assessed as inhibition of tube formation at 1.6 uM after 24 hrs by light microscopic analysis relative to control. In kind it is functional. The following applies: Homo sapiens.
Data set [2] relates to HUVEC. The data set can be described thus: Downregulation of VEGF protein level in HUVEC at 3.125 uM after 24 hrs by Western blot analysis relative to control. Format: functional, Homo sapiens.
Data set [3] concerns the target RAC-alpha serine/threonine-protein kinase (Homo sapiens) (UniProt P31749). The data set can be described thus: Inhibition of Akt phosphorylation in HUVEC at 3.125 uM after 24 hrs by Western blot analysis relative to control. In kind it is cell-based.
Data set [4] deals with HUVEC. The data set can be described thus: Cytotoxicity activity against HUVEC assessed as decrease in cell viability up to 6.25 uM after 24 hrs by MTT assay. Format: cell-based. The note with it: human. Background: Tetrazolium assays rely on reduction of a dye to a coloured formazan, in cell work by metabolically active cells.
Data set [5] concerns HUVEC. The data set is described as follows: Downregulation of VEGF level in HUVEC at 6.25 uM after 24 hrs by Western blot analysis relative to control. In kind it is functional, Homo sapiens. For orientation: In western blotting, separated proteins are transferred to a membrane and probed.
The subject of data set [6] is HUVEC. The data set can be described thus: Downregulation of HIF-1 alpha protein level in HUVEC at 6.25 uM after 24 hrs by Western blot analysis relative to control. Format: functional, Homo sapiens.
Data set [7] deals with HepG2. The data set can be described thus: Antiproliferative activity against human HepG2 cells after 24 hrs by MTT assay. In kind it is functional, cell-based.
Data set [8] deals with HepG2. The data set can be described thus: Antiproliferative activity against human HepG2 cells at 200 uM after 24 hrs by MTT assay. Format: functional.
Data set [9] concerns SNU-182. The data set can be described thus: Downregulation of MMP2 mRNA levels in human SNU182 cells at 20 uM after 24 hrs by quantitative real-time qPCR analysis. Format: functional, cell-based. (In general: Real-time PCR tracks product formation cycle by cycle.)
The subject of data set [10] is SNU-182. The data set can be described thus: Cytotoxicity against human SNU182 cells assessed as decrease in cell viability up to 20 uM after 48 hrs by MTT assay. The note with it: snu-182, 48 h. In kind it is cell-based.
Data set [11] relates to HUVEC. The data set is described as follows: Cytotoxicity activity against HUVEC assessed as decrease in cell viability at 12.5 to 100 uM after 24 hrs by MTT assay. In kind it is cell-based. The following applies: human.
Data set [12] concerns HUVEC. The data set can be described thus: Antiangiogenic activity in HUVEC assessed as inhibition of tube formation at 3.125 uM after 24 hrs by light microscopic analysis relative to control. In kind it is functional. The following applies: Homo sapiens.
The target in data set [13] is RAC-alpha serine/threonine-protein kinase (Homo sapiens) (UniProt P31749). The data set can be described thus: Inhibition of Akt phosphorylation in HUVEC at 6.25 uM after 24 hrs by Western blot analysis relative to control. Format: cell-based.
The subject of data set [14] is SNU-182. The data set can be described thus: Downregulation of MMP9 mRNA levels in human SNU182 cells at 20 uM after 24 hrs by quantitative real-time qPCR analysis. Format: functional, cell-based.
The test system of data set [15] is HUVEC. The data set can be described thus: Antiangiogenic activity in HUVEC assessed as inhibition of tube formation at 6.25 uM after 24 hrs by light microscopic analysis relative to control. Format: functional. The following applies: Homo sapiens.
The test system of data set [16] is HUVEC. The data set is described as follows: Downregulation of HIF-1 alpha protein level in HUVEC at 3.125 uM after 24 hrs by Western blot analysis relative to control. Format: functional, Homo sapiens.

RAC-alpha serine/threonine-protein kinase (Homo sapiens), sequence (P31749 whole entry): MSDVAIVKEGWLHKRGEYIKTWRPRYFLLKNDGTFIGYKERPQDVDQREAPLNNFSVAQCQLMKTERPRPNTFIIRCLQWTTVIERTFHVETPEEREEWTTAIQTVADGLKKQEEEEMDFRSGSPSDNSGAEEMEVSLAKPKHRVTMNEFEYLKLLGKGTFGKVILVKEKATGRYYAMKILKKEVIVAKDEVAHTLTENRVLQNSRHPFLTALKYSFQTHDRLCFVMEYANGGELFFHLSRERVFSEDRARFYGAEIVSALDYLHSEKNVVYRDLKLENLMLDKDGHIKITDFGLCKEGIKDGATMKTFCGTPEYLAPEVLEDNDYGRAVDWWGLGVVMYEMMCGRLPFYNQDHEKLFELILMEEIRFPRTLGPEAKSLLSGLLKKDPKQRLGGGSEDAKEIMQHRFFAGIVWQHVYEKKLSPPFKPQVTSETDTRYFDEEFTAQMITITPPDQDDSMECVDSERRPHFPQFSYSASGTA

Usually inhibition stands for the percentage by which the read-out fell short of the control. For the molecule `CC(C)=CC[C@@H](O)C1=CC(=O)c2c(O)ccc(O)c2C1=O` [SHIKONIN], the inhibition at 1.6 µM in the data set with HUVEC [1] was 31.8%.

As for `COc1ccc(-c2cc(=O)c3c(O)c(OC)c(O)cc3o2)cc1OC` [EUPATILIN], the “fold change (FC)” value in the data set on HUVEC [2] turned out to be 0.88; in data set [3], 0.82; in the data set with HUVEC [6], 0.84; in data set [13], 0.8; in the data set with HUVEC [16] it was 0.83. The Activity result with HUVEC [4] is “Non-Toxic”; in the data set on HUVEC [5] it was 31%; in the data set with HepG2 [7], “Dose-dependent effect”; in the data set with HepG2 [8], 43.24%; in the data set with SNU-182 [10], “Non-Toxic”; in the data set with HUVEC [11], “Toxic”. In addition, the outcome in the data set with SNU-182 [9] was Active. Besides, in the data set with HUVEC [12], the inhibition at 3.125 µM is 14.1%. The result in the data set with SNU-182 [14] was inactive. Moreover, the inhibition at 6.25 µM with HUVEC [15] was 24.8%.

The values are drawn from ChEMBL document CHEMBL4265901, “Eupatilin inhibits angiogenesis-mediated human hepatocellular metastasis by reducing MMP-2 and VEGF signaling” (Bioorg Med Chem Lett, 2018).
